The subject of one assay is HCT116 colorectal cancer. Description: MTT cell viability assay, HCT-116. Format: cell-based. The following applies: read-out: HCT-116 IC50, 48 h, mean of six values. (In general: Formazan colour is commonly taken as a measure of viable cells.)
Assay [1] relates to A549 non-small cell lung cancer. The assay can be described thus: MTT cell viability assay, A549. The following applies: read-out: A549 IC50; MTT, 48 h, mean of six values. In kind it is cell-based.

For `O=c1[nH]cc(F)c(=O)[nH]1` [Compound 5-F.U., reference compound], the values for the IC50 (with HCT116 colorectal cancer; in assay [1]) were 4.8 µM and 6 µM, respectively.
